Results reported in article PMC8750527 (Cancers, 2021).
Like-named read-outs stand apart in the source and are kept apart here.

Columns and labels:
HD-MB03 = assay: MTT assay, 48 h exposure, HD-MB03 MB cells; assay type: cell-based, human; conditions: for IC50: MTT, 48 h exposure, mean ± SEM
Protocol: (§1) HDF (3000 cells), C8-D1A (5000 cells), D458 (5000 cells), DAOY (2000 cells), HD-MB03 (10,000 cells) and CHLA-01-Med (10,000 cells) were seeded at an approximate confluency of 50% in 96-well plates (Corning Inc., Corning, NY, USA) in 100 µL medium per well. A range from 50 nM to 150 µM of every drug was tested. The effects of the antiangiogenic compounds were measured using a 3-[4,5-dimethylthiazol-2yl]-diphenyltetrazolium bromide (MTT) colorimetric assay (Sigma, Lyon, France) according to the manufacturer’s instructions. When applicable, IC50 was calculated using the nonlinear regression method of the Prism 5 software (Graphpad Software Inc., San Diego, CA, USA). […] An MTT assay was conducted as described above to assess the fitness of the cells.

CHLA-01-Med = assay: MTT assay, 48 h exposure, CHLA-01-Med MB cells; assay type: cell-based, human
Protocol: as §1

DAOY = assay: MTT assay, 48 h exposure, DAOY MB cells; assay type: cell-based, human; conditions: for IC50: MTT, 48 h exposure, mean ± SEM
Protocol: as §1

HDF [1] = assay: Cell viability, propidium iodine incorporation, HDF; assay type: cell-based, human; conditions: 48 h; axitinib, cabozantinib 5 µM, etoposide 1 µM
Protocol: (§2) Cell viability assays were conducted using a propidium iodine incorporation technique with an ADAM-sHIT automated cell counter (NanoEnTek, Gyeonggi-do, Korea) according to the manufacturer’s protocol.

HDF [2] = assay: MTT assay, 48 h exposure, human dermal fibroblasts; assay type: cell-based
Protocol: as §1

C8-D1A = assay: MTT assay, 48 h exposure, murine primary astrocytes; assay type: cell-based
Protocol: as §1

D458 = assay: MTT assay, 48 h exposure, D458 MB cells; assay type: cell-based, human; conditions: for IC50: MTT, 48 h exposure, mean ± SEM
Protocol: as §1

C8-D1A astrocytes = assay: Cell viability, propidium iodine incorporation, C8-D1A; assay type: cell-based, murine; conditions: 48 h; axitinib, cabozantinib, sunitinib 5 µM, etoposide 1 µM
Protocol: as §2

MB cells = assay: Cell viability, propidium iodine incorporation, MB cells; assay type: cell-based, human; conditions: 48 h, 5 µM
Protocol: as §2

COc1cc2nccc(Oc3ccc(NC(=O)C4(C(=O)Nc5ccc(F)cc5)CC4)cc3)c2cc1OC [Cabozantinib, cabozantinib]
IC50 (HD-MB03; Homo sapiens, HD-MB03, Table 1): 0.78 ± 0.2 µM | Specificity Index relative to C8D1A, HDMB (HD-MB03; ratio IC50 C8-D1A / IC50 HD-MB03): 5.13 | Specificity Index relative to HDF, HD-MB03 (HD-MB03; ratio IC50 HDF / IC50 HD-MB03): 5.26 | IC50 (CHLA-01-Med; Homo sapiens, Table 1, MTT, 48 h exposure, mean ± SEM): 11.4 ± 2.1 µM | Specificity Index relative to C8D1A, CHLA-01-Med (CHLA-01-Med; ratio IC50 C8-D1A / IC50 CHLA-01-Med): 0.35 | Specificity Index relative to HDF, CHLA-01-Med (CHLA-01-Med; ratio IC50 HDF / IC50 CHLA-01-Med): 0.36 | IC50 (DAOY; Homo sapiens, Daoy, Table 1): 8.3 ± 1.2 µM | Specificity Index relative to C8D1A, DAOY (DAOY; ratio IC50 C8-D1A / IC50 DAOY): 0.48 | Specificity Index relative to HDF, DAOY (DAOY; ratio IC50 HDF / IC50 DAOY): 0.49 | viability of HDF normal cells (HDF [1]): no effect on the viability | IC50 (HDF [2]; Homo sapiens, HDF, Table 1, normal cells, mean ± SEM): 4.1 ± 1.9 µM | IC50 (C8-D1A; Mus musculus, C8-D1A, Table 1, normal cells, mean ± SEM, read-out: IC50 (µM) C8D1A): 4 ± 2.2 µM | IC50 (D458; Homo sapiens, Table 1): 5.1 ± 1.6 µM | Specificity Index relative to C8D1A, D458 (D458; ratio IC50 C8-D1A / IC50 D458): 0.78 | Specificity Index relative to HDF, D458 (D458; ratio IC50 HDF / IC50 D458): 0.80 | viability of C8-D1A normal cells (C8-D1A astrocytes): no effect on the viability | viability of MB cells (MB cells): decreased the viability of most MB cells

N.N.O=C([O-])C1(C(=O)[O-])CCC1.[Pt+2] [Carboplatin, carboplatin]
IC50 (HD-MB03; Table 3): > 20 µM | IC50 (DAOY; Table 3): > 20 µM | IC50 (HDF [2]; Table 3, mean ± SEM): > 20 µM | IC50 (C8-D1A; Table 3, mean ± SEM): > 20 µM | IC50 (D458; Table 3): > 20 µM
